According to patent publication US20110293756A1, “PREVENTIVES OR REMEDIES FOR TUMOR OR HUMAN PAPILLOMAVIRAL DISEASE” (priority 2001, published 2011):

Assays:
[1] = test system: cervical carcinoma in situ (CIS); experiment: Clinical test in cervical carcinoma in situ (CIS), stage 0; format: in vivo, human; conditions: 2 to 6 weeks of administration; extracts 2 g/day, folic acid 15 mg/day; group A 21, B 15 (8+7), C 8, D 12, E 11 cases; control 0 of 42
Description: A method for the clinical testing was performed in the manner described below under sufficient informed consent. Colposcopy was performed for patients who had been diagnosed to be class IV or V based on the cytobiosis of cervical cancer, portions of their lesions were subjected to biopsy, and then administration of various pharmaceutical preparations was immediately started. Test groups are as shown below. Each group was observed. […]

[2] = test system: cervical dysplasia (CIN1, CIN2); experiment: Clinical test in cervical dysplasia CIN1 / CIN2; format: in vivo, human; conditions: 2 months after administration; extracts 2 g/day, folic acid 15 mg/day; Yokunin 8, hot water 3, ethanol 3, folic acid 5, enzyme/fermentation 6, with folic acid 8 cases; untreated 0 of 15
Description: According to the CIN classification, CIN1 and CIN2 correspond to mild dysplasia and moderate dysplasia, respectively, and CIN3 includes severe dysplasia and the above CIS. Here, the clinical effect of the pharmaceutical preparations of the present invention against the CIN1 and CIN2 is presented.
A test was conducted for cases, which had been diagnosed to be class III by cytological diagnosis and as having mild dysplasia or moderate dysplasia by histological diagnosis, and carefully followed up without conization, and for which informed consent had been obtained.
Further, the enzyme extract of Coix seeds with husks (3 cases)- or the fermentation extract (3 cases) (daily dose of 2 g of the respective extract ingredients)-administered group (6 cases), the enzyme extract of Coix seeds with husks (4 cases) or the fermentation extract (4 cases) (respective daily dose of 2 g as the extract ingredient) compounded with folic acid (15 mg/day)-administered group (8 cases) were observed. […] Test groups are as shown below. Each group was observed.
Each pharmaceutical preparation was administered over a long period (1 year), and cytological diagnosis and colposcopy were performed every 3 to 4 months.

[3] = test system: koilocytic atypia, mild dysplasia and moderate dysplasia; conditions: 5 mg/day, 331 patients, six months; cited from earlier work
[4] = test system: CIN I or CIN II; conditions: 10 mg/day, 154 cases, 6 months; cited from earlier work

Nc1nc2ncc(CNc3ccc(C(=O)N[C@@H](CCC(=O)O)C(=O)O)cc3)nc2c(=O)[nH]1 [folic acid]
cases showing disappearance of carcinoma in situ in postoperative histological tests [1]: none of the cases
cases showing improvement in both cytological diagnosis and colposcopy findings [2]: None of the cases
improving effect compared with the group orally administered with placebo [3]: no difference was found
effect compared with the group orally administered with placebo [4]: no difference was also found
